The record followed here is PubChem BioAssay AID330 (DTP/NCI, 2004).

The test has as its system P388 leukemia ip, CD2F1 mice, survival T/C. In words: NCI In Vivo Anticancer Drug Screen. Data for tumor model P388 Leukemia (intraperitoneal) in CD2F1 (CDF1) mice. The following applies: endpoint: median survival time, higher = longer survival. In short, it runs like this: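 Mice carrying the transplanted tumor received test compound or vehicle. Survival was recorded in each group, and the value is the treated-group measurement divided by that of the vehicle-treated control group.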

Where [1] appears, read: dose: 2.5 mg/kg/injection, schedule: Q01DX009 (ip), vehicle: saline.
[2] abbreviates: dose: 60.0 mg/kg/injection, schedule: Q01DX005 (ip), vehicle: saline with Tween-80.
[3] abbreviates: dose: 120.0 mg/kg/injection, schedule: Q01DX005 (ip), vehicle: saline with Tween-80.
Where [4] appears, read: dose: 240.0 mg/kg/injection, schedule: Q01DX005 (ip), vehicle: saline with Tween-80.
Where [5] appears, read: dose: 50.0 mg/kg/injection, schedule: Q01DX009 (ip), vehicle: saline.
[6] abbreviates: dose: 100.0 mg/kg/injection, schedule: Q01DX009 (ip), vehicle: saline.
Where [7] appears, read: dose: 50.0 mg/kg/injection, schedule: Q01DX005 (ip), vehicle: Klucel (hydroxypropylcellulose) (HPC).
[8] abbreviates: dose: 100.0 mg/kg/injection, schedule: Q01DX005 (ip), vehicle: Klucel (hydroxypropylcellulose) (HPC).

Where “and” joins values, the source holds several entries; their conditions need not be identical. Identical values can stand only once. Toxic doses and inconclusive results are not listed.

For `COc1cc(OC)c(-c2oc3c(OC)c(OC)c(OC)c(OC)c3c(=O)c2OC)cc1OC`, the T/C runs as follows: (dose: 15.0 mg/kg/injection, schedule: Q01DX005 (ip), vehicle: Klucel (hydroxypropylcellulose) (HPC)) 94 % of control; (dose: 30.0 mg/kg/injection, schedule: Q01DX005 (ip), vehicle: Klucel (hydroxypropylcellulose) (HPC)) 102 % of control; (dose: 60.0 mg/kg/injection, schedule: Q01DX005 (ip), vehicle: Klucel (hydroxypropylcellulose) (HPC)) 92 % of control; (dose: 120.0 mg/kg/injection, schedule: Q01DX005 (ip), vehicle: Klucel (hydroxypropylcellulose) (HPC)) 90 % of control.
As to `O=NN(CCF)C(=O)NCCF`, the T/C by setting is: (dose: 0.11 mg/kg/injection, schedule: Q01DX009 (ip), vehicle: saline) 109 % of control; (dose: 0.16 mg/kg/injection, schedule: Q01DX009 (ip), vehicle: saline) 109 % of control; (dose: 0.25 mg/kg/injection, schedule: Q01DX009 (ip), vehicle: saline) 122 % of control; under setting [1], 236 % of control.
In the case of `Cc1ccc(Cl)cc1NS(=O)(=O)c1ccc2ccccc2c1`, the T/C reads like this: (dose: 100.0 mg/kg/injection, schedule: Q04DX003 (ip), vehicle: saline with Tween-80) 100 % of control; (dose: 200.0 mg/kg/injection, schedule: Q04DX003 (ip), vehicle: saline with Tween-80) 109 % of control; (dose: 400.0 mg/kg/injection, schedule: Q04DX003 (ip), vehicle: saline with Tween-80) 104 % of control.
Turning to `O=C1NC(=O)C2(CC3CCCC(C2)N3c2ccccc2)N1` (stereo unspecified), the T/C (dose: 100.0 mg/kg/injection, schedule: Q04DX003 (ip), vehicle: DMSO) was 95 % of control; the T/C (dose: 200.0 mg/kg/injection, schedule: Q04DX003 (ip), vehicle: DMSO) was 89 % of control; the T/C (dose: 400.0 mg/kg/injection, schedule: Q04DX003 (ip), vehicle: DMSO) was 91 % of control.
On to `CC(C)(C)c1cc(C(c2cc3c(cc2O)OCO3)N2CCOCC2)cc(C(C)(C)C)c1O` (stereo unspecified), for which the T/C is 102 % of control and 111 % of control and 112 % of control under setting [2]; 105 % of control and 111 % of control and 115 % of control under setting [3]; 104 % of control under setting [4]; 123 % of control (dose: 480.0 mg/kg/injection, schedule: Q01DX005 (ip), vehicle: saline with Tween-80).
Consider `CN(C)CCSc1nnc(N)s1`, for which the T/C reads like this: (dose: 25.0 mg/kg/injection, schedule: Q01DX001 (ip), vehicle: saline) 108 % of control; (dose: 50.0 mg/kg/injection, schedule: Q01DX001 (ip), vehicle: saline) 109 % of control; (dose: 100.0 mg/kg/injection, schedule: Q01DX001 (ip), vehicle: saline) 105 % of control and 109 % of control; (dose: 200.0 mg/kg/injection, schedule: Q01DX001 (ip), vehicle: saline) 94 % of control.
On to `CCCCCCCCCCCCCCCCc1c(C)nc(N(C)C)oc1=O`, for which the T/C was 103 % of control under setting [2]; 97 % of control under setting [3]; 98 % of control and 100 % of control under setting [4].
Consider `C=C(C)c1nn(-c2ccccc2)c2c1C(=O)CC(C)O2` (stereo unspecified), for which the T/C under setting [2] is 98 % of control, the T/C under setting [3] is 100 % of control and the T/C under setting [4] was 98 % of control.
With `Clc1ccc(C(Cn2ccnc2)OCc2c(Cl)cccc2Cl)cc1` (stereo unspecified), the T/C is 102 % of control (dose: 50.0 mg/kg/injection, schedule: Q01DX009 (ip), vehicle: saline with Tween-80) and 97 % of control (dose: 100.0 mg/kg/injection, schedule: Q01DX009 (ip), vehicle: saline with Tween-80).
As to `c1ccc2c[n+](CCCCCCCCCC[n+]3ccc4ccccc4c3)ccc2c1`, the T/C was 94 % of control (dose: 1.25 mg/kg/injection, schedule: Q01DX009 (ip), vehicle: saline); 101 % of control under setting [1]; 102 % of control (dose: 5.0 mg/kg/injection, schedule: Q01DX009 (ip), vehicle: saline).
For `Cc1cc2ccccc2cc1N`, the T/C was 106 % of control under setting [5]; 100 % of control under setting [6]; 97 % of control (dose: 200.0 mg/kg/injection, schedule: Q01DX009 (ip), vehicle: saline).
With `NC(N)=NC(N)=Nc1ccc([As](=O)(O)O)c(O)c1`, the T/C runs as follows: (dose: 22.5 mg/kg/injection, schedule: Q01DX009 (ip), vehicle: saline) 105 % of control; (dose: 25.0 mg/kg/injection, schedule: Q01DX009 (ip), vehicle: saline sonified) 118 % of control; (dose: 33.0 mg/kg/injection, schedule: Q01DX009 (ip), vehicle: saline) 104 % of control; (dose: 45.0 mg/kg/injection, schedule: Q01DX009 (ip), vehicle: saline) 104 % of control; (dose: 50.0 mg/kg/injection, schedule: Q01DX009 (ip), vehicle: saline sonified) 118 % of control; under setting [5], 109 % of control. Besides, the T/C was 122 % of control (dose: 75.0 mg/kg/injection, schedule: Q01DX009 (ip), vehicle: saline); 115 % of control (dose: 90.0 mg/kg/injection, schedule: Q01DX009 (ip), vehicle: saline); 117 % of control (dose: 180.0 mg/kg/injection, schedule: Q01DX009 (ip), vehicle: saline); 103 % of control (dose: 360.0 mg/kg/injection, schedule: Q01DX009 (ip), vehicle: saline).
As for `COC(=O)[C@@]12OC[C@]34[C@H]([C@@H](O)[C@@H]1O)[C@@]1(C)CC(=O)C(O)=C(C)[C@@H]1C[C@H]3OC(=O)[C@H](OC(=O)/C=C(/C)C(C)(C)O)[C@@H]24`, the T/C was 113 % of control and 115 % of control (dose: 0.25 mg/kg/injection, schedule: Q01DX009 (ip), vehicle: saline + alcohol); 115 % of control (2×) and 124 % of control (dose: 0.5 mg/kg/injection, schedule: Q01DX009 (ip), vehicle: saline + alcohol); 162 % of control (dose: 8.0 mg/kg/injection, schedule: Q01DX009 (ip), vehicle: saline + alcohol).
Regarding `CCN(CC)CCOC(=O)Cc1cccc2c(=O)cc(-c3ccc(OC)cc3)oc12`, the T/C reads like this: (dose: 12.5 mg/kg/injection, schedule: Q01DX005 (ip), vehicle: Klucel (hydroxypropylcellulose) (HPC)) 113 % of control; (dose: 25.0 mg/kg/injection, schedule: Q01DX005 (ip), vehicle: Klucel (hydroxypropylcellulose) (HPC)) 113 % of control; under setting [7], 98 % of control; under setting [8], 121 % of control.
On to `Clc1cccc(Cl)c1C(Nc1nccs1)Nc1nccs1`, for which the T/C reads like this: under setting [7], 100 % of control; under setting [8], 103 % of control; (dose: 200.0 mg/kg/injection, schedule: Q01DX005 (ip), vehicle: Klucel (hydroxypropylcellulose) (HPC)) 114 % of control.
As to `CC(=O)O.CC(=O)[O-].CC(=O)[O-].[Co+3].[NH-]CC[NH-].[NH-]CC[NH-]`, under setting [6], the T/C is 100 % of control.
Turning to `CCCCCCCCCCCCCCN1CCCN(CCCCCCCCCCCCCC)CC1`, the T/C is 92 % of control under setting [2], 94 % of control under setting [3] and 88 % of control under setting [4].
Regarding `CCOC(=O)/C(=C(/[S-])SC)[n+]1ccc(C)cc1`, the T/C was 101 % of control (dose: 100.0 mg/kg/injection, schedule: Q04DX002 (ip), vehicle: saline with Tween-80) and 99 % of control (dose: 200.0 mg/kg/injection, schedule: Q04DX002 (ip), vehicle: saline with Tween-80).
Take `CC(=O)c1cc(I)c(O)c2ncccc12`: the T/C was 97 % of control (dose: 6.25 mg/kg/injection, schedule: Q01DX009 (ip), vehicle: saline with Tween-80); 94 % of control (dose: 12.5 mg/kg/injection, schedule: Q01DX009 (ip), vehicle: saline with Tween-80); 98 % of control (dose: 25.0 mg/kg/injection, schedule: Q01DX009 (ip), vehicle: saline with Tween-80).
Consider `c1ccc2sc(SCSc3nc4ccccc4s3)nc2c1`, for which the T/C by setting is: (dose: 50.0 mg/kg/injection, schedule: Q01DX009 (ip), vehicle: Klucel (hydroxypropylcellulose) (HPC)) 111 % of control; (dose: 100.0 mg/kg/injection, schedule: Q01DX009 (ip), vehicle: Klucel (hydroxypropylcellulose) (HPC)) 112 % of control; (dose: 200.0 mg/kg/injection, schedule: Q01DX009 (ip), vehicle: Klucel (hydroxypropylcellulose) (HPC)) 114 % of control; (dose: 400.0 mg/kg/injection, schedule: Q01DX009 (ip), vehicle: Klucel (hydroxypropylcellulose) (HPC)) 117 % of control.
`O=S(=O)(O)c1cc2cc(S(=O)(=O)O)c3nnc4cc(S(=O)(=O)O)cc5cc(S(=O)(=O)O)c(nnc6cc(S(=O)(=O)O)cc7cc(S(=O)(=O)O)c(nnc(c1)c2c3O)c(O)c76)c(O)c54`: the T/C is, setting by setting: (dose: 30.0 mg/kg/injection, schedule: Q01DX005 (ip), vehicle: saline with Tween-80) 93 % of control; under setting [2], 106 % of control and 91 % of control.
